Assay results taken from patent US8080529B2, “Macrolides with anti-inflammatory activity” (Glaxo Group Limited, priority 2005, dated 2011).

Columns and labels:
PMA induced ear oedema = test: Phorbol 12-myristate 13-acetate induced ear oedema in CD1 mice; assay type: in vivo
Procedure: Male CD1 mice (Iffa Credo, France) weighing 30-40 g were randomly grouped (n=6 in test group of which the untreated ear served as negative control; 6 in positive control group which also served as their own negative control group). Test compounds, as well as vehicle (Trans-phase Delivery System, containing benzyl alcohol 10%, acetone 40% and isopropanol 50%) (all from Kemika, Croatia), were administered topically to the internal surface of the left ear thirty minutes prior to administration of phorbol 12-myristate 13-acetate (PMA) (Sigma, USA). Test compounds were administered at a dose of 100, 250 or 500 μg/15 μL/ear. Thirty minutes later, 0.01% PMA solution in acetone was applied topically to the inner surface of the left ear of each animal in a volume of 12 μL/ear. During the treatment and challenge (stimulation), animals were anaesthetized with anaesthesia by inhalation. Six hours following challenge, animals were euthanized by intraperitoneal thiopental injection (PLIVA, Croatia). For assessing the auricular oedema, 8 mm discs were cut out of left and right auricular pinna and weighed. The degree of oedema was calculated by subtracting the weight of 8 mm disc of the untreated ear from that of the treated contralateral ear. The inhibition of oedema in the treated animals, presented in the Table 8, is expressed as percentage compared to control mice (0%).

LPS-induced septic shock = test: Septic shock induced by bacterial lipopolysaccharide in male BALB/cJ mice; assay type: in vivo; settings: 24 hours
Procedure: Male BALB/cJ mice, (Iffa Credo, Lyon, France) 8 weeks old, weighing 25 g were randomly grouped (n=10 in testing groups and 15 in control group). Animals were primed with 4 μg bacterial lipopolysaccharide (LPS) that was dissolved in saline and administered i.pl. After 18-24 hours animals were challenged by an intravenous injection of 90 μg LPS in a volume of 0.2 mL. Animals were treated with the test compounds or the vehicle (control) intraperitoneally . . . or per os 30 min prior to each injection of LPS. Survival throughout 24 hours was monitored.

SMILES | Oedema (% inhibition) (PMA induced ear oedema; 100 μg/ear topical) [%] | Oedema (% inhibition) (PMA induced ear oedema; 250 μg/ear topical) [%] | Oedema (% inhibition) (PMA induced ear oedema; 500 μg/ear topical) [%] | Survival (%) (LPS-induced septic shock; 10 mg/kg i.p.) | Survival (%) (LPS-induced septic shock; 100 mg/kg p.o.) | Survival (%) (LPS-induced septic shock; 1 mg/kg p.o.) | Survival (%) (LPS-induced septic shock; 10 mg/kg p.o.)
CCC1OC(=O)C(C)C(OC2CC(C)(OC)C(OC(=O)CCN(CC)CC)C(C)O2)C(C)C(OC2OC(C)CC(N(C)C)C2O)C(C)(OC)CC(C)C(=O)NC(C)C(O)C1(C)O (centres unmarked) [Example 8, 4″-O-(3-Diethylamino-propionyl)-6-O-methyl-9a-aza-9a-homoerythromycin A] | 54 | 74 | 94 | 50 | 100 | – | –
CC[C@H]1OC(=O)[C@H](C)[C@@H](O[C@H]2C[C@@](C)(OC)[C@@H](O)[C@H](C)O2)[C@H](C)[C@@H](O[C@@H]2O[C@H](C)C[C@H](N(C)C)[C@H]2O)[C@](C)(O)C[C@@H](C)CN(C)[C@H](C)[C@@H](O)[C@]1(C)O [azithromycin, reference compound] | 0 | 83 | 90 | – | 70 | 30 | 60
